{
  "source": "patent US20240350456A1",
  "about": "“COMPOSITIONS AND METHODS FOR DIAGNOSING AND TREATING INFLAMMATORY CONDITIONS” (RUTGERS, THE STATE UNIVERSITY OF NEW JERSEY, priority 2023, published 2024)",
  "key": {"ZO-1 (Tjp1) and Ocln": {"system": "ZO-1 (Tjp1) and Ocln", "experiment": "Intestinal organoids treated with LPS and metabolites: tight junction (TJ) expression, RT-qPCR and immunostaining", "type": "cell-based, mouse", "settings": "for gene expression of Ocln: ex vivo, in the presence of the barrier disruptor; for TJ expression at the protein and mRNA levels: in the presence of LPS (1 μg/mL), 48 hr", "protocol": "Intestinal organoids were isolated as previously described (Das et al., 2015; Pearce et al., 2018). Briefly, crypts were isolated from small intestine of conventional house C57BL/6 male mice (Taconic Laboratories, Hudson, NY) by shaking in isolation buffer (2 mM EDTA in PBS), then, crypts were harvested, processed, and suspended in crypt culture medium (CCM), which consisted of advanced DMEM/F12 (Life Technologies, Carlsbad, CA) supplemented with serum-free B27 (1:50; Life Technologies), N2 (1:100; Life Technologies), N-acetylcysteine (1 mM; Sigma-Aldrich, St. Louis, MO), recombinant murine epithelial growth factor (EGF, 50 ng/ml; Peprotech, Rocky Hill, NJ), Noggin (100 ng/ml; Peprotech), R-Spondin (500 ng/ml; Peprotech), Glutamax-I supplement (1:100; Life Technologies), penicillin/streptomycin (500 μg/ml; Life Technologies), and HEPES ([…]; Life Technologies). Crypts were resuspended in 70% Matrigel (density ˜450 crypts per dome, 2 domes per well in 24-well plate) and allowed to solidify at 37° C. for 20 min. CCM (1.5 mL) was then added to each well. Cultures were incubated in a humidified incubator at 37° C., and CCM was changed daily. Intestinal organoid treatment with LPS and metabolites\nWe had 2 series of metabolite-treated organoid experiments, i.e., 1) organoid from conventional C57BL6 mice and 2) Ocln KO and littermate WT control as a gift from Prof. Jerrold Turner (Harvard University). […] Seeding is designated as day 0. On day 3 of culture, the existing media in the wells were completely removed before adding treatments. LPS (1 μg/mL) with or without metabolites, i.e., IPA (0.1 mM) (Li et al., 2021), IAM (200 μM) (Vyhlidalova et al., 2020), MNA (12 ng/ml) (Liu et al., 2015), CARN (20 mM) (Boldyrev et al., 2013) or ASA (1 μM) (Erez et al., 2011) were each added in CCM at known physiological concentrations, incubated for 48 hours, thereafter, organoid was harvested for RNA extraction, and paraformaldehyde fixation for immunostaining.\nTotal RNA was extracted from the intestinal organoids using a commercially available kit (RNeasy Microkit; Qiagen, MD, Cat. #74004) following manufacturer's instructions. mRNA samples were converted to cDNA using Bio-Rad's iScript Reverse Transcription Supermix for RT-qPCR (Bio-Rad Laboratories, Hercules, CA, Cat. #1708840). cDNA was then used for RT-qPCR (Mx3000P. Stratagene, La Jolla, CA) to analyze several genes using Maxima SYBR Green qPCR Master Mix (Thermo Fisher Scientific, Waltham, MA) and primers (Integrated DNA Technologies, Coralville, IA). Thermal profile for three-step cycling was 10 min at 95° C. for initial denaturation; then 40 cycles of 15 sec at 95° C. for denaturation, 30 sec at 65° C. for annealing, and 30 sec at 75° C. for extension. Primers used are as follows: β-actin (Actb), forward 5′-[…]-3′ (SEQ ID NO: 5), reverse 5′-[…]-3′ (SEQ ID NO: 6); ZO-1 (Tjp1), forward 5′-[…]-3′ (SEQ ID NO: 7), reverse 5′-[…]-3′ (SEQ ID NO: 8), Ocln, forward 5′-[…]-3′ (SEQ ID NO: 9), reverse 5′-[…]-3′ (SEQ ID NO: 10); Lyz1, forward 5′-ATGGCTACCGTGGTGTCAAG-3′ (SEQ ID NO: 11), reverse 5′-CGGTCTCCACGGTTGTAGTT-3′ (SEQ ID NO: 12); Tff3, forward 5′-TAATGCTGTTGGTGGTCCTG-3′ (SEQ ID NO: 13), reverse 5′-CAGCCACGGTTGTTACACTG-3′ (SEQ ID NO: 14). All samples were normalized to β actin expression. Gene expression levels are depicted as fold change relative to the control group.\nImmunocytochemistry followed earlier work (Pearce et al., 2018). Briefly, organoids were extracted from Matrigel by using cell recovery solution (Corning, Cat. No. 354253), processed then fixed in 4% paraformaldehyde for 15 min and dehydrated with 70% ethanol and kept in 4° C. until embedded in paraffin. On the day of embedding, organoids were gently spun down to a pellet (250 g for 5 min), then the supernatant was removed, the pellet resuspended in agarose and embedded in paraffin. […]"}, "[1]": {"system": "human-derived Caco-2 cells", "experiment": "In vitro transwell screening in Caco-2 cells, barrier disrupted by Clostridium difficile toxin (TEER and FITC-dextran permeability)", "type": "cell-based", "source_text": "FIG. 20A-20B. In vitro screening of metabolites effective against leaky gut. FIG. 20A, Diagram of the in vitro transwell method used to evaluate efficacy of metabolites in protecting the leaky gut in human-derived Caco-2 cells. The luminal compartment represents the food side, and the basolateral the blood side. FIG. 20B, Transepithelial electrical resistance (TEER) measurements, and FITC-dextran measurements, evaluate the leakiness of the tight junction that regulates the pore (top) and leak (bottom) pathways of the gut. Ions (red), small molecules (blue), FITC-dextran (orange).\nFIG. 21A-21D. Efficacy of tryptophan and vitamin B3 metabolites in protecting the gut barrier in vitro. FIG. 21A, TEER measurements of metabolites placed on luminal side of transwells for 72 hours. After 48 hours, the barrier was disrupted by the toxin of clostrium difficile (Cdiff). FIG. 21B, Integrated results of area under the curve using data from FIG. 21A. FIG. 21C, FITC-dextran permeability analysis of metabolites applied luminally. FIG. 21D, FITC-dextran permeability analysis of metabolites applied basolaterally.\nFIG. 22A-22B. Efficacy of microbiota-derived indole metabolites in protecting the gut barrier. FIG. 22A, Integrated results of TEER measurements of metabolites placed on luminal side of transwells for 72 hours. After 48 hours, the barrier was disrupted by the toxin of clostrium difficile (Cdiff) FIG. 22B, FITC-dextran permeability analysis of metabolites from FIG. 22A applied luminally.\nTo perform in vitro screening of the metabolites effective against leaky gut, an in vitro transwell method was used. (FIG. 20A) The efficacy of these metabolites in protecting the leaky gut was analyzed in human-derived Caco-2 cells. Transepithelial electrical resistance (TEER) measurements evaluates the leakiness of the tight junction that regulates the pore (FIG. 20B, top) and leak (FIG. 20B, bottom) pathways of the gut. The higher the TEER, the less permeable the junction is to the movement of ions and small molecules. FITC-dextran is a large polysaccharide with a fluorescent moiety, typically used as a probe to assess the leakiness of the tight junction to large molecules like dextran. The faster the movement of FITC-dextran from lumen to blood, the greater the permeability.\n(FIG. 21A) There was no effect of these metabolites on TEER when applied by themselves. After 48 h, the barrier was disrupted by the toxin of a common “bad” bacteria Clostridium difficile (Cdiff). TEER plummeted with this toxin (TOX, red line) compared to control (Veh, blue line). […] (FIG. 21A)"}},
  "data": [
    {"smiles": "C[n+]1cccc(C(N)=O)c1", "note": "[Methylnicotinamide, 1-methynicotinamide]", "values": [
      {"measurement": "gene expression of Ocln", "setting": "ZO-1 (Tjp1) and Ocln", "result": "increased gene expression of Ocln"},
      {"measurement": "TJ expression at the protein and mRNA levels", "setting": "ZO-1 (Tjp1) and Ocln", "result": "increased TJ expression"},
      {"measurement": "integrated TEER (area under the curve, FIG. 21B)", "setting": "[1]; luminal, C. difficile toxin", "result": "protected the cells from barrier disruption by TOX"},
      {"measurement": "TEER after C. difficile toxin (FIG. 21A)", "setting": "[1]; metabolites on luminal side, toxin after 48 h", "result": "best at preventing the toxin-induced disruption of the barrier"}
    ]},
    {"smiles": "NC(=O)Cc1c[nH]c2ccccc12", "note": "[Indole-3-acetamide, indole-3-acetamide]", "values": [
      {"measurement": "gene expression of Ocln", "setting": "ZO-1 (Tjp1) and Ocln", "result": "increased gene expression of Ocln"},
      {"measurement": "TJ expression at the protein and mRNA levels", "setting": "ZO-1 (Tjp1) and Ocln", "result": "increased TJ expression"},
      {"measurement": "TEER, indole metabolites (FIG. 22A)", "setting": "[1]; applied to the lumen, TOX", "result": "clearly protective against TOX-induced decreases in TEER"}
    ]}
  ]
}
